SMILES strings stand for the structures.

The assay deals with T1, Angiotensin II receptor (AT-1) type-1 (Rattus norvegicus, UniProt P29089+P25095).
T1 sequence (P29089 whole entry): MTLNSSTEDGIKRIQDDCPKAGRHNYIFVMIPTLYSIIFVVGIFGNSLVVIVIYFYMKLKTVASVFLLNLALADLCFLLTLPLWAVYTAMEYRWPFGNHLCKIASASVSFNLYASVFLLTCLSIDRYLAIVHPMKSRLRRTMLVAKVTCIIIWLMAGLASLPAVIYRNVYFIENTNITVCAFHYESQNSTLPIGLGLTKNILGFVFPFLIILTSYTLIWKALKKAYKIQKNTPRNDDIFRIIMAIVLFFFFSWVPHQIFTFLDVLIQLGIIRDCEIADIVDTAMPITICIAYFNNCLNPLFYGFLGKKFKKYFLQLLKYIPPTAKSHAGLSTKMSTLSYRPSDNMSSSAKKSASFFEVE
T1 sequence (P25095 whole entry): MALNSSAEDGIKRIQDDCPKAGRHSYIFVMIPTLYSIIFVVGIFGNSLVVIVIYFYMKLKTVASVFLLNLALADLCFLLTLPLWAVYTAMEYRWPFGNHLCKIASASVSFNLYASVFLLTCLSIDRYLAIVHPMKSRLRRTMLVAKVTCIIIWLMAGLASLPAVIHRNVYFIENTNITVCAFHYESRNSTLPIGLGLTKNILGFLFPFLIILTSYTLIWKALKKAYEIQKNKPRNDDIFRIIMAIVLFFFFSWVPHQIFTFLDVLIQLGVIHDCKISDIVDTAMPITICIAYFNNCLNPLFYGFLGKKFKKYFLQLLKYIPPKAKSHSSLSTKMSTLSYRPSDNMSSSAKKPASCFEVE
The experiment in a line: Inhibitory concentration that gives 50% displacement of specific binding at labeled angiotensin II type 1 receptor in rat adrenal cortical membranes. It counts as cell membranes, Membrane.
As to `CCCCc1nc(Cl)c(CC(=O)OC)n1Cc1ccc(NC(=O)c2ccccc2NS(=O)(=O)C(F)(F)F)cc1`, the IC50 (as a rule, the concentration needed to halve the response being measured) was 500 nM. The result for `CCCCc1nc(Cl)c(CC(=O)O)n1Cc1ccc(CC(=O)O)cc1` reads 13000 nM. With `CCCCc1nc(Cl)c(COC)n1Cc1ccc(NC(=O)Cc2ccccc2CC(=O)O)cc1` the figure was 2800 nM.

For the origin of these results see ChEMBL document CHEMBL1145976, “Non-peptide angiotensin II receptor antagonists: chemical feature based pharmacophore identification” (J Med Chem, 2003).
